Reference: PMC11532494 (Nature Communications, 2024)
“And” between values parts separate entries of the source, which are not always exact repeats. Equal entries are not always repeated. Where two headings read alike, the source gives them in different places.

Tests used:
RwDmhA (1b) = RwDmhA (1b) (Rhizorhabdus wittichii, UniProt A0A067XIQ6); format: biochemical; conditions: RwDmhA (1b) 3µM; single samples (replicates)
LcApaH (3) = LcApaH (3) (Legionella cherrii, UniProt A0A0W0SGS1); format: biochemical
LcApaH (3), sequence (A0A0W0SGS1 1-425): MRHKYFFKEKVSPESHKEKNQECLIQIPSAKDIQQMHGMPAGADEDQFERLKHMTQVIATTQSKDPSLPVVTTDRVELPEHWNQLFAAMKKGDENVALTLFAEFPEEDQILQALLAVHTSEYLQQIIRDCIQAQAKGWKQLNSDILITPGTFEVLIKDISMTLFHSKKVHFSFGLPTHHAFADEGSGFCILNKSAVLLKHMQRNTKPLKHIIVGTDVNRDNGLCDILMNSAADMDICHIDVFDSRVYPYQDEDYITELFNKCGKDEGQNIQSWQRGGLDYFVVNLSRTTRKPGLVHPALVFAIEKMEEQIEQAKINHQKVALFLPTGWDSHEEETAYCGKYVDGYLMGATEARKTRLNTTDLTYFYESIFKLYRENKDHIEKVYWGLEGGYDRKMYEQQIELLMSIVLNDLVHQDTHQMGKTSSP

RsPrpH (1b) = assay: Acetyl-polyamine deacetylase assay; format: biochemical, Rhizorhabdus sp.; conditions: RsPrpH 3µM; single samples (replicates)
VcHdaH (5b) = assay: Acetyl-polyamine deacetylase assay; format: biochemical, Vibrio cholerae; conditions: VcHdaH (5b) 6µM; single samples (replicates)
BsAcuC (2c) = biological target: T1, BsAcuC (2c) (Bacillus subtilis, UniProt P39067); assay: Acetyl-polyamine deacetylase assay; format: biochemical; conditions: BsAcuC (2c) 3µM; single samples (replicates)
T1 construct: made in house; host or cells: E. coli BL21 (DE3)
T1 sequence (P39067 1-387): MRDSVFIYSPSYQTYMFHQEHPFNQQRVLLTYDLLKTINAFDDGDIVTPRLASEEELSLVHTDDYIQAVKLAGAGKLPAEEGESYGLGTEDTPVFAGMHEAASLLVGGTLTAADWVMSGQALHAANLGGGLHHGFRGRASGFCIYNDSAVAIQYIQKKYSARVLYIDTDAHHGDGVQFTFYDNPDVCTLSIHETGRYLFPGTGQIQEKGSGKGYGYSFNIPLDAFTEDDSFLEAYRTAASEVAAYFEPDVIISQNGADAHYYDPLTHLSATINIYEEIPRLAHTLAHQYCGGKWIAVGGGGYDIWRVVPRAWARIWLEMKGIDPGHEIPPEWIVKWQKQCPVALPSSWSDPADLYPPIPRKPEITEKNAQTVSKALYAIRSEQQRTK

PsApaH (4) = PsApaH (4) (Pseudomonas sp. M30-35, UniProt A0A1Y0KY79); assay: Acetyl-polyamine deacetylase assay; format: biochemical; conditions: single samples (replicates)
PsApaH (4), sequence (A0A1Y0KY79 1-342 limits assumed): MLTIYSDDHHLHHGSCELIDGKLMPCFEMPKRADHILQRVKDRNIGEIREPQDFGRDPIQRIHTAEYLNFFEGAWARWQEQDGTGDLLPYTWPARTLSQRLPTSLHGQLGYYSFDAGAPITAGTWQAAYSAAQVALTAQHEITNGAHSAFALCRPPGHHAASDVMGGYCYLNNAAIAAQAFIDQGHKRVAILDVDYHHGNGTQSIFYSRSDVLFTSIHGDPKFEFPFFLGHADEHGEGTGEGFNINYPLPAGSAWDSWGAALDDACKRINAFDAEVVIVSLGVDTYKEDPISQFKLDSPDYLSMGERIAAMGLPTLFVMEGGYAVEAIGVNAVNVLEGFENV

KpHdaH (1b) = KpHdaH (1b) (Klebsiella pneumoniae, UniProt A0A377Z5F6); format: biochemical; conditions: KpKDAC (1b); single samples (replicates)
KpHdaH (1b), sequence (A0A377Z5F6 1-371): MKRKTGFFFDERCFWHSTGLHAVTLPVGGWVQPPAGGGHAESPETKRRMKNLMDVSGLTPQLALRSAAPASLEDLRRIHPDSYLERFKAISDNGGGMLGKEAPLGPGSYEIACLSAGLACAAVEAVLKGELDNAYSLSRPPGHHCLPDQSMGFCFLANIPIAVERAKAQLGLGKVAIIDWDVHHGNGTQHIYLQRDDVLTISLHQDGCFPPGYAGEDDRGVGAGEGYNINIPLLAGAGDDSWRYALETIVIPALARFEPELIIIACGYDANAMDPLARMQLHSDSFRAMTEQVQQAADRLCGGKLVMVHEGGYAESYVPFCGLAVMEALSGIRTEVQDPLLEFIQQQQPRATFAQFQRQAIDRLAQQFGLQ

LpApaH (3) = LpApaH (3) (Legionella pneumophila, UniProt A0A2S6EWV0); format: biochemical
LpApaH (3), sequence (A0A2S6EWV0 1-426): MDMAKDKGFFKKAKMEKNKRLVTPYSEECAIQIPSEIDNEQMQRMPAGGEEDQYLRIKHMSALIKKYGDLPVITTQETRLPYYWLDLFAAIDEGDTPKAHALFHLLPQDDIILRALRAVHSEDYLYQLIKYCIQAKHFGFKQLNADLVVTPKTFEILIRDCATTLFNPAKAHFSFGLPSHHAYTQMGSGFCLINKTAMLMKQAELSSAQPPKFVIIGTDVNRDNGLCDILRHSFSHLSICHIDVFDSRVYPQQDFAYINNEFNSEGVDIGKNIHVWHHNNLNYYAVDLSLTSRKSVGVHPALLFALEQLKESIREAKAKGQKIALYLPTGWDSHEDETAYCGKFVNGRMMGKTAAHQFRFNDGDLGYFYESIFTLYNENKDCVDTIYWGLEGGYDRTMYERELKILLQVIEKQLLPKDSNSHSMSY

PA1409 = PA1409 (Pseudomonas aeruginosa, UniProt Q9I3T5); assay: Acetyl-polyamine deacetylase assay (positive control); format: biochemical; conditions: for acetate released, g/l / acetate released, mM / mM normalized to enzyme concentration: PA1409 (positive control enzyme), single samples (replicates); for A1-A2: absorbance difference between the two time points; for A1-A2 / (A1-A2)-B: sheet Figure 2d; for (A1-A2)-B: absorbance difference minus mean blank
PA1409, sequence (Q9I3T5 whole entry): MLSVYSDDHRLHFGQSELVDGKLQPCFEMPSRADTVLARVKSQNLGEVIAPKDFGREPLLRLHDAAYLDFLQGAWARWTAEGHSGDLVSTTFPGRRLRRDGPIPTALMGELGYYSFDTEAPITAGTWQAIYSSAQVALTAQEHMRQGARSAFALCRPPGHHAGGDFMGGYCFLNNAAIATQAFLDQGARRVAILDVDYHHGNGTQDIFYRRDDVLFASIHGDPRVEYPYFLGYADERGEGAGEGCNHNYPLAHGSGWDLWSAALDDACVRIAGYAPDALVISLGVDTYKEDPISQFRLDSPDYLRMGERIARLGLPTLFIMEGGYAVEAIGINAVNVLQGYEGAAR

VsHdaH (1b) = format: biochemical, Vibrio sp.; conditions: VsHdaH (1b) 3µM; single samples (replicates)
[1] = LcApaH (3), single samples (replicates)

RwDmhA (1b), sequence (A0A067XIQ6 1-369): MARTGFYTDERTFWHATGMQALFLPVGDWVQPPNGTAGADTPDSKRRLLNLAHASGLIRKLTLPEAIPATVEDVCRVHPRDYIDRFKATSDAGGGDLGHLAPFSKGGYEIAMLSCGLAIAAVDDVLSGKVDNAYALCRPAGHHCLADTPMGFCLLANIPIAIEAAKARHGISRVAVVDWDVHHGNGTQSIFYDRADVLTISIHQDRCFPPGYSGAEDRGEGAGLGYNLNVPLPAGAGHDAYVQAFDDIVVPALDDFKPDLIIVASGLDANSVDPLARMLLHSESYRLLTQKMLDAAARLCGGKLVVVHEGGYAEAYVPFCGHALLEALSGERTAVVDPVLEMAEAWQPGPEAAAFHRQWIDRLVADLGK

Compound	acetate released, g/l (RwDmhA (1b))	acetate released, mM (RwDmhA (1b))	mM normalized to enzyme concentration (RwDmhA (1b))	acetate released, g/l (RsPrpH (1b))	acetate released, mM (RsPrpH (1b))	mM normalized to enzyme concentration (RsPrpH (1b))	acetate released, g/l (VcHdaH (5b))	acetate released, mM (VcHdaH (5b))	mM normalized to enzyme concentration (VcHdaH (5b))	acetate released, g/l (BsAcuC (2c))	acetate released, mM (BsAcuC (2c))	mM normalized to enzyme concentration (BsAcuC (2c))	acetate released, g/l (KpHdaH (1b))	acetate released, mM (KpHdaH (1b))	mM normalized to enzyme concentration (KpHdaH (1b))	acetate released, g/l (LpApaH (3))	acetate released, mM (LpApaH (3))	mM normalized to enzyme concentration (LpApaH (3))	acetate released, g/l (VsHdaH (1b))	acetate released, mM (VsHdaH (1b))	also measured
CC(=O)NCCCCCN [N1-acetyl-cadaverine]	0.01449 g/L and 0.01841 g/L and 0.0252 g/L	0.2413 mM and 0.3065 mM and 0.4196 mM	0.08044 mM and 0.1022 mM and 0.1399 mM	0.02441 g/L and 0.02154 g/L and 0.02285 g/L	0.4065 mM and 0.3587 mM and 0.3804 mM	0.1355 mM and 0.1196 mM and 0.1268 mM	0.0009138 g/L and -0.0001305 g/L and 0.0003916 g/L	0.01522 mM and -0.002174 mM and 0.006522 mM	0.002536 mM and -0.0003623 mM and 0.001087 mM	0.0001305 g/L and -0.0003916 g/L and -0.01371 g/L	0.002174 mM and -0.006522 mM and -0.2283 mM	0.0007246 mM and -0.002174 mM and -0.07609 mM	0.005 g/L and 0.003 g/L and 0.002 g/L	0.0755 mM and 0.044 mM and 0.0346 mM	0.0151 mM and 0.0088 mM and 0.00692 mM	0.0236 g/L and 0.04 g/L	0.39 mM and 0.70 mM	0.20 mM and 0.35 mM	0.004047 g/L and 0.005091 g/L and 0.00483 g/L	0.06739 mM and 0.08478 mM and 0.08044 mM	acetate released, g/l (LcApaH (3); [1]): 0.0133 g/L and 0.011 g/L; acetate released, mM (LcApaH (3); [1]): 0.22 mM and 0.18 mM; mM normalized to enzyme concentration (LcApaH (3); [1]): 0.22 mM and 0.18 mM; acetate released, g/l (PsApaH (4)): 0.08943 g/L and 0.09204 g/L and 0.09674 g/L; acetate released, mM (PsApaH (4)): 1.489 mM and 1.533 mM and 1.611 mM; acetate released, g/l (PA1409): 0.1346 g/L; acetate released, mM (PA1409): 2.242 mM; mM normalized to enzyme concentration (PA1409): 22.4156 mM; A1-A2 (PA1409): 0.543; (A1-A2)-B (PA1409): 0.5015; mM normalized to enzyme concentration (VsHdaH (1b)): 0.02246 mM and 0.02826 mM and 0.02681 mM
CC(=O)NCCCNCCCCNCCCNC(C)=O [N1/N12 diacetyl-spermine]	0.001697 g/L and 0.004569 g/L	0.02826 mM and 0.07609 mM	0.00942 mM and 0.02536 mM	0.002219 g/L and 0.001175 g/L	0.03696 mM and 0.01957 mM	0.01232 mM and 0.006522 mM	0.001436 g/L and 0.0001305 g/L and 0.0006527 g/L	0.02391 mM and 0.002174 mM and 0.01087 mM	0.003986 mM and 0.0003623 mM and 0.001812 mM	0.003525 g/L and 0.003264 g/L and -0.001436 g/L	0.0587 mM and 0.05435 mM and -0.02391 mM	0.01957 mM and 0.01812 mM and -0.007971 mM	0.007868 g/L and 0.006091 g/L and 0.003807 g/L	0.131 mM and 0.1014 mM and 0.0634 mM	0.0262 mM and 0.02029 mM and 0.01268 mM	0.003439 g/L and 0.00291 g/L	0.05727 mM and 0.04846 mM	0.02863 mM and 0.02423 mM	0.00248 g/L and 0.0003916 g/L	0.0413 mM and 0.006522 mM	acetate released, g/l (LcApaH (3)): 0.00344 g/L; acetate released, mM (LcApaH (3)): 0.06 mM; mM normalized to enzyme concentration (LcApaH (3)): 0.06 mM; acetate released, g/l (PA1409): 0.2048 g/L and 0.2032 g/L; acetate released, mM (PA1409): 3.41 mM and 3.383 mM; mM normalized to enzyme concentration (PA1409): 34.0974 mM and 33.8331 mM; mM normalized to enzyme concentration (VsHdaH (1b)): 0.01377 mM and 0.002174 mM and 0.003623 mM
CC(=O)NCCCCNCCCN [N8-acetyl-spermidine]	0.005875 g/L and 0.0006527 g/L	0.09783 mM and 0.01087 mM	0.02246 mM and 0.03261 mM and 0.003623 mM	0.01005 g/L and 0.01371 g/L and 0.01762 g/L	0.1674 mM and 0.2283 mM and 0.2935 mM	0.0558 mM and 0.07609 mM and 0.09783 mM	0.002219 g/L and 0.004047 g/L and 0.004569 g/L	0.03696 mM and 0.06739 mM and 0.07609 mM	0.006159 mM and 0.01123 mM and 0.01268 mM	0.006919 g/L and 0.003003 g/L and 0.003525 g/L	0.1152 mM and 0.05 mM and 0.0587 mM	0.03841 mM and 0.01667 mM and 0.01957 mM	-0.006957 g/L and 0.01217 g/L and 0.008116 g/L	-0.1158 mM and 0.2027 mM and 0.1352 mM	-0.02317 mM and 0.04055 mM and 0.02703 mM	0.00515 g/L and 0.00674 g/L	0.09 mM and 0.11 mM	0.0429 mM and 0.0561 mM	0.002742 g/L and 0.003003 g/L	0.04565 mM and 0.05 mM	acetate released, g/l (LcApaH (3)): 0.008058 g/L and 0.009115 g/L; acetate released, mM (LcApaH (3)): 0.1342 mM and 0.1518 mM; mM normalized to enzyme concentration (LcApaH (3)): 0.1342 mM and 0.1518 mM; acetate released, g/l (PsApaH (4)): 0.04138 g/L and 0.04164 g/L and 0.04191 g/L; acetate released, mM (PsApaH (4)): 0.6891 mM and 0.6935 mM and 0.6978 mM; A1-A2 (PA1409): 0.581 and 0.564; (A1-A2)-B (PA1409): 0.5395 and 0.5225; mM normalized to enzyme concentration (VsHdaH (1b)): 0.01522 mM and 0.01667 mM and 0.02536 mM
